The values that follow come from patent publication US20140072654A1, “CANCER WITH METABOLIC THERAPY AND HYPERBARIC OXYGEN” (priority 2011, published 2014).

Several values for one entry are separate records, joined by “and”; a condition that tells them apart may be missing. Equal values may be shown once. Entries after “also recorded” stand apart in the source; their conditions may differ.

A short description of series [1]: Acute ketosis with supplementation in healthy VM/Dk mice (blood glucose, blood βHB, urine AcAc after feeding). It is filed as in vivo, mouse. As to conditions: for time after feeding to significant βHB elevation: after 8 hour fast; for ketone bodies elevated, βHB and AcAc: blood βHB and urine AcAc; for time for which blood glucose was significantly lowered: standard chow with ketone supplementation after 8 hour fast. The protocol:
FIG. 34(A)-(C) are graphs showing effect of ketone supplementation on blood glucose, blood βHB, urine AcAc, and body weight in mice. (A-C) blood glucose; (B) blood levels of ketones; and (C) urine AcAc of healthy VM/Dk mice 0-12 hours after feeding following 8 hour fast. […] Error bars represent ±SEM.

Series [2] can be described thus: Blood ketones and glucose after oral gavage in rats. It is filed as in vivo, rat. As to conditions: for duration of elevation of blood ketones: single oral/intragastric administration; for blood AcAc level / blood acetone level / effect on blood glucose / blood BHB level (words): ~10 g/kg gavage; for blood acetone level: 60 minutes; for effect on blood glucose: over 4 hrs, relative to water; for blood BHB level (words): vs control water. The protocol: Whole blood samples (10 μl) were acquired for analysis of glucose and BHB utilizing a commercially available glucose/ketone monitoring system (Nova Max® Plus) at time 0, 30, 60, 120, 180 and 240 min. In addition, heparinized blood samples (200 μl) were collected into Eppendorf tubes at time 0, 30, 60, 120, 180 and 240 min. Samples were processed for the detection and quantification of BHB, AcAc, and acetone. Briefly, samples were chilled on ice for 30 s, centrifuged in a micro-centrifuge (13,000 G) for 3-5 min and plasma (>100 μl), treated with reducing reagent of cold 0.2M sodium borodeuteride (NaBD4; Sigma, 205591, CAS 15681-89-7) dissolved in 0.1M NaOH (8.4 mg NaBD4 in 1 ml of 0.1M NaOH) and then immediately frozen on dry ice before storing at −80° C. Acetone was analyzed at the 60 minute time point, which was the predicted peak of blood AcAc levels (Desrochers et al. 1995). 300 μl of whole blood were collected in addition to the above collections, stabilized with cold 0.2M NaBD4, and then immediately frozen on dry ice. Samples were stored at −80° C. until analyzed for ketones. Internal standards of [^2H6]BHB or [^2H8]isopropanol were added to the treated plasma or blood samples (50 μl or 15 μl) and the BHB, AcAc (as M+1 of BHB) or acetone (as 2-propanol) metabolites were analyzed by gas chromatography-mass spectrometry (GC-MS) using an Agilent 5973 mass spectrometer, linked to a 6890 gas chromatograph equipped with an autosampler. Briefly, GC-MS conditions were either EI or CI mode (electron or chemical ionization mode); the samples were detected by selected ion monitoring as the BHB- and AcAc-trimethylsilyl derivatives (EI) or the derivative of acetone-pentafluorobenzoyl (CI).
KE and BD. […] Blood was collected and processed as described in the previous example.
Ketone measurements were taken at 30, 60, 120, 180 and 240 minutes. Blood plasma was treated with sodium borodeuteride (NaB2H4) to stabilize ketone concentration and then assayed by GC-MS. The rapid rise relating to blood ketones from BD-AcAc2 is due primarily from rapid desterfication in blood and tissues.

Series [3] in a line: Blood glucose, blood βHB and body weight of VM-M3 survival study mice.
The subject of a further series is VM-M3/Fluc tumors. Description: Tumor bioluminescence in VM-M3/Fluc mice. It is filed as in vivo, mouse. As to conditions: for tumor growth / bioluminescence: VM-M3 mice vs controls; for whole body tumor bioluminescence (ROI), representative animal: day 21 after tumor cell inoculation.
A further series deals with VM-M3 metastatic cancer. In words: Survival time in VM-M3 mouse model of metastatic cancer. The class given is in vivo. As to conditions: for increase in mean survival time: Example 5, compared to controls; for % increase in survival time: Example 5, vs control (SD).
The conditions of series [4]: rats; for decrease of blood pH compared to control after about 30 minutes / decrease of blood pH compared to control after about one hour: control pH ~7.5, mean.
The subject of series [5] is rats exposed to hyperbaric oxygen (5 ATA O2). In words: CNS oxygen toxicity: latency to seizure (EEG) in rats in hyperbaric oxygen. The class given is in vivo, rat. The following applies: for effect on latency to seizure / CNS-OT (words) / increase in latency to seizure (LS) compared to control: rats; for effect on latency to seizure / CNS-OT (words): 5 ATA O2, ~3 ml (~10 g/kg) gavage 30 min before HBO2; for increase in latency to seizure (LS) compared to control: 5 ATA O2, ~10 g/kg intragastric 30 min before dive, control water. The text has this: Hyperbaric Chamber HBO2 system consisted of two main elements: 1) a plexiglass chamber (˜3 liter capacity, Diamond Box, Buxco, Electronics Inc., model PLY3114), that housed the rat during the experiment, and 2) a hyperbaric chamber (Reimers System Inc.—7.8 ATA MWP), that contained the plexiglass chamber and functioned as the pressure vessel. Both chambers were connected to an air compressor (oil-less rotary scroll compressor—model DK6086, Powerex).
During each experiment (hyperbaric hyperoxia), both the main chamber and the animal chamber were filled with air (dive profile). Rats were placed into the plexiglass chamber and allowed ten minutes to acclimate, at which time the plexiglass chamber was flushed with 100% 02. The animal was then allowed 15 minutes to acclimate before both chambers were compressed to 5 ATA (58.8 PSIG) at a rate of 0.7 ATA/min. The outer chamber was pressurized using air (capacity ˜205 liters) to minimize the risk of an electrical-induced fire. Each experiment was visually monitored via a live camera. LS was calculated from the moment at which the internal and the external chambers reached 5 ATA until the onset of convulsions, identified as high-amplitude, high frequency spikes lasting 10 to 30 sec, followed by polyspikes and wave formation concurrent with tonic-clonic motions of forelimbs and head. After the onset of seizures, the plexiglass chamber was flushed with air to quickly terminate seizure, and both chambers decompressed to sea level. Decompression rate was 1 ATA/min. Rats were then allowed a 15 min recovery period in air at 1 ATA before being removed from the chamber.
The radiotelemetry system consisted of an implantable 4ET radio-transmitter able to amplify and broadcast signals via a receiver (DSI PhysioTel, model RPC-2) connected to an acquisition interface unit (ACQ 7700 Ponemah) via electrical penetrations in the wall of the hyperbaric chamber. The acquisition interface unit was connected to a computer for real time data collection and storage. The same acquisition unit also recorded chamber pressure and temperature, which were measured, respectively, by […] directly connected to the acquisition system via BNC (Bayonet Neill-Concelman) cables.
Anticonvulsant effect of supplemental ketones was tested in rats exposed to hyperbaric oxygen (5 ATA O2). The effects of ketone esters (KEs) in preventing CNS-OT in rats were assessed before, during and after HBO2 exposure by measuring various parameters.
Adult male Sprague-Dawley rats (n=60) rats (300-450 grams; 3 to 6 month old) were obtained from Harlan, anesthetized in 3-5% isoflurane (in 02) and implanted with a 4ET radio-transmitter (Data Sciences International, DSI) using sterile surgical technique. The rat chamber was ventilated with pure O2 while the hyperbaric chamber, containing the radio-receiver (DSI), was pressurized in parallel with air to 5 atmospheres absolute (ATA). One pair of leads (positive and negative poles) was implanted in the costal diaphragm at the junction with the abdominal wall for diaphragmatic electromyogram (dEMG) signals, one pair of electrodes was inserted in the pectoral muscle to acquire electrocardiogram (ECG) data, and two pairs of wires were embedded in the skull between Bregma and Lambda, with one lead on either side of midline for each pair (EEG recordings). The EMG wires were not inserted into crural diaphragmatic muscle because of the high risk of pneumothorax due to the thinness of the muscle (419 to 630 μm). 4ET radio-transmitters also monitored core body temperature and physical activity. Rats were weighed immediately before surgery and subsequently once every 7 days, just prior to the weekly exposures to HBO2. After surgery, every animal recovered for ≧1 week. The rats were food (not water) deprived for 18 hours prior to the start of the experiment.
In each case animals were gavaged about 30 minutes prior to diving. […]

Setting [6] is: single oral administration ~10 g/kg.

With `CC(=O)CC(=O)OCCC(C)OC(=O)CC(C)=O` (stereo not drawn) [KE, R,S-1,3-butanediol acetoacetate diester], in series [1], the “time after feeding to significant βHB elevation” value came out at 4 h; the “ketone bodies elevated, βHB and AcAc” value was “elevated both βHB and AcAc”; the “time for which blood glucose was significantly lowered” value was determined as 4 h. Moreover, the “total ketones about 30 minutes after gavage” value in series [2] (10 g/kg gavage) is recorded as greater than 5 mM. Besides, in series [2] (setting [6]), the “blood AcAc” value is recorded as greater than 3 mM and the “blood BHB” value is greater than 3 mM. Also, the “sustained elevation of total ketones” value in series [2] (single oral administration, for over 4 hrs) is listed as greater than 6 mM. In series [2], the “duration of elevation of blood ketones” value was 4 h and > 4 h; the “blood AcAc level” value was “increased significantly more; also recorded: significant increase in BHB and AcAc at 30 minutes”; the “blood acetone level” value is recorded as “significantly higher at 60 minutes”; the “effect on blood glucose” value is reported as “no significant effect on blood glucose levels”. Also, the “blood BHB level (words)” value in series [2] was “significant increase in BHB and AcAc at 30 minutes”. For the same compound, in series [2] (listed as BD-AcAc2), the “duration of elevation of blood ketones” value is “over 4 h” and the “effect on blood glucose” value was “does not elevate blood glucose”. Moreover, the blood acetone in series [2] (within about 60 minutes after single oral administration) is roughly 0.7 mM. In series [3], the “blood glucose vs controls” value was “lower blood glucose” and the “blood ketones (βHB) vs controls” value is “elevated blood βHB”. Also, in the series with VM-M3/Fluc tumors, the “tumor growth / bioluminescence” value is listed as “drastically reduced tumor progression” and the “whole body tumor bioluminescence (ROI), representative animal” value is given as 1.536×10^6. In the series on VM-M3 metastatic cancer, the “increase in mean survival time” value is “approximately 22 days”; the “% increase in survival time” value is 69% and 69.2* %. The “Mean survival” value in the series on VM-M3 metastatic cancer (Example 5, supplemental ketones, control (SD) 31.2) is 52.8 days. For the same compound, in series [4], the “blood pH change, mild nonpathological acidosis (FIG. 25)” value is “from 7.45 to 7.35”; the “decrease of blood pH compared to control after about 30 minutes” value was found to be 0.05; the “decrease of blood pH compared to control after about one hour” value was 0.1. Besides, the “increase in blood pO2 levels” value in series [4] (sustained) is recorded as “approximately 30%”. In addition, in series [5] (listed as 1,3-BD AcAc diester), the “effect on latency to seizure / CNS-OT (words)” value was “delays CNS-OT”. In series [5] (listed as BD-AcAc2), the “effect on latency to seizure / CNS-OT (words)” value is “most effective KE against CNS-OT; also recorded: significantly increased the latency time to seizure” and the “increase in latency to seizure (LS) compared to control” value (shortened to “increase in latency to seizure (LS)”) is reported as greater than 570%. Further, the “increase in latency to seizure (LS)” value in series [5] was 574±115% and 574±116%. Also, in series [5] (listed as dKE), the “increase in latency to seizure (LS)” value was found to be 570%.

Take “(R)-1,3-butanediol ester [BHB ester, reference compound]”: in series [2], the “blood BHB level (words)” value is “elevated blood levels of B-hydroxybutyrate”. For the same compound, the “effect on latency to seizure / CNS-OT (words)” value in series [5] (listed as 1,3-BD BHB ester) is “lack of efficacy”; in series [5] (listed as B-hydroxybutyrate ester) it was “no effect on seizure latency”.

For `C[C@H](O)CCO` [BD, R,S-1,3-butanediol, reference compound], in series [1], the “time after feeding to significant βHB elevation” value is 1 h; the “ketone bodies elevated, βHB and AcAc” value is recorded as “only elevated βHB”; the “time for which blood glucose was significantly lowered” value turned out to be 8 h. Further, in series [2] (setting [6]), the “blood BHB” value is reported as greater than 5 mM. In series [2], the “blood AcAc level” value was “only modest elevation in AcAc relative to KE; also recorded: low or undetectable”, the “blood acetone level” value was “low or undetectable”, the “effect on blood glucose” value is “no significant effect on blood glucose levels” and the “blood BHB level (words)” value is given as “significant increase in BHB”. The “blood BHB level (words)” value in series [2] (listed as 1,3-butanediol) is on record as “elevated blood levels of B-hydroxybutyrate”. In the series on VM-M3/Fluc tumors, the “tumor growth / bioluminescence” value was “profound effect” and the “whole body tumor bioluminescence (ROI), representative animal” value was 1.739×10^6. Further, in the series with VM-M3 metastatic cancer, the “increase in mean survival time” value was “approximately 16 days” and the “% increase in survival time” value is reported as 51%. For the same compound, in series [4], the “blood pH change, mild nonpathological acidosis (FIG. 25)” value is “from 7.45 to 7.35”; the “decrease of blood pH compared to control after about 30 minutes” value is 0.05; the “decrease of blood pH compared to control after about one hour” value turned out to be 0.1. The “effect on latency to seizure / CNS-OT (words)” value in series [5] was “did not delay CNS-OT; also recorded: did not increase LS”. Further, the “effect on latency to seizure / CNS-OT (words)” value in series [5] (listed as 1,3-BD) is recorded as “lack of efficacy”. For the same compound, in series [5] (listed as 1,3-butanediol), the “effect on latency to seizure / CNS-OT (words)” value is recorded as “no effect on seizure latency”.

On to `CC(=O)CC(=O)OCCC(C)O` (stereo not drawn) [BD-AcAc, R,S-1,3-butanediol acetoacetate monoester], for which, in series [5] (5 ATA O2 (60 PSI), same rat 8 minutes without ketone ester), the “latency time to seizure, individual rat (EEG)” value stood at 110 min. Besides, the “effect on latency to seizure / CNS-OT (words)” value is “significantly increased the latency time to seizure” in series [5] and “delays CNS-OT” in series [5] (listed as 1,3-BD AcAc monoester). Also, the “increase in latency to seizure (LS)” value in series [5] turned out to be 285%.
